From patent US5338684A, “Stable aqueous FK506 standards” (Abbott Laboratories, priority 1993, dated 1994)

Experiments:
[1] = assay type: physicochemical, human
Description: This example illustrates the preparation of an aqueous composition of the invention utilizing whole human blood containing the anticoagulant, ethylenediamine tetraacetic acid (EDTA). It also illustrates a comparison of the stability of FK506 in the aqueous composition of the invention with the stability of FK506 in a synthetic blood matrix (prepared by adding hemoglobin to human serum) and with the stability of FK506 in plasma and serum
A synthetic blood matrix was prepared by adding hemoglobin (10 grams/deciliter) to human serum. A stock standard of FK506 in methanol (10 micrograms FK506/ml) was spiked into this synthetic matrix to provide two initial concentrations of 32.2 nanograms FK506/ml (ng/ml)(high) and 7.5 ng/ml (low). A composition of the invention was prepared by adding the stock standard of FK506 in methanol (10 micrograms FK506/ml) into human whole blood (containing sufficient EDTA to prevent coagulation ) to provide two initial concentrations of 47.1 ng/ml (high) and 9.3 ng/ml (low). The stability of these two different matrices was evaluated by placing the four different standards at 37 degrees Celsius and determining the concentration of FK506 present as a function of time.

[2] = assay type: physicochemical
Description: FK506 was spiked into plasma and serum and the stability at 37 degrees Celsius was evaluated as for human blood and the synthetic matrix above. The plasma contained sufficient EDTA as anti-coagulant to prevent coagulation.
Comparative plasma and serum matrices were prepared by adding a stock standard of FK506 in methanol (10 micrograms FK506/ml) to the plasma and serum matrices to provide two initial concentrations of 41.8 ng/ml (high) and 18.4 ng/ml (low) for the plasma and two initial concentrations of 44.9 ng/ml (high) and 22.4 ng/ml (low) for the serum. As for the human blood and synthetic matrix above, the stability of these two different matrices was evaluated by placing the four different standards at 37 degrees Celsius and determining the concentration of FK506 present as a function of time.

[3] = assay type: physicochemical, human; remark: listed apart in the source
Description: This example illustrates the utilization of blood cell fragments according to the invention to stabilize FK506 in an aqueous matrix. Human blood cells were lysed by sonication or by repetitive freeze-thaw cycles respectively. Lysis was judged complete by the absence of blood cells under microscopic examination. Except for the utilization of lysed human blood cells instead of whole blood cells, the FK506 standards were prepared in the same manner as in Example 1 above.

[4] = assay type: physicochemical, human; remark: listed apart in the source
Description: This example illustrates the utilization of human packed red blood cells (with EDTA as anticoagulant) and saline in an aqueous, FK506-containing composition of the invention. It also illustrates the enhanced stability of FK506 in this composition of the invention compared to the stability of FK506 in comparative serum and plasma compositions.
Human packed red blood cells (with sufficient EDTA added to prevent coagulation) were mixed in equal parts by volume with saline (0.9 percent by weight sodium chloride solution), human plasma or human serum. Three freeze-thaw cycles were done on each matrix combination to lyse the cells. The pH on each matrix was adjusted to pH 6.0 with 3 Molar (M) citric acid. FK506 standards were made in each matrix and stability at […] was evaluated as described above.

[5] = assay type: physicochemical, sheep
Description: (§1) This example illustrates the suitability of non-human blood sources for a composition of the invention. In this example both sheep blood (non-lysed as in Example 1 above and containing the anti-coagulant citrate) and horse blood (lysed by freeze-thaw cycles as in Example 2 above and containing the anti-coagulant EDTA) were utilized. FK506 standards were made in each matrix and stability was evaluated at 37 degrees Celsius as described above.

[6] = assay type: physicochemical, horse
Description: as §1

[7] = assay type: physicochemical; remark: listed apart in the source
Description: Whole blood has the undesirable characteristic of thickening at elevated temperatures. Thickened blood can be difficult or impossible to pipet which can make a blood matrix completely unsuitable as a standard for a diagnostic assay.
Whole blood (plus sufficient EDTA to prevent coagulation) was lysed by freeze-thaw cycles and diluted with saline so as to be at final saline concentrations of 10, 20 and 30 percent by volume. FK506 in methanol was spiked into the matrix to make standards and the stability was evaluated at 37 degrees Celsius as described above.

[8] = system: monoclonal antibody directed against FK506 (Fujisawa clone #1-60-46); test: Microparticle capture enzyme immunoassay (MEIA) for FK506, competitive with FK506-alkaline phosphatase conjugate; assay type: binding; settings: pH 6.0
Description: In general an analyte such as FK506 is determined in an MEIA by quantifying the rate of fluorescence development when a fluorogenic substrate is converted by the action of an enzyme-labeled conjugate. MEIAs as run on the IMx® analyzer generally utilize a reagent pack containing microparticle reagent, an alkaline phosphatase conjugate, fluorogenic substrate and, optionally, a diluent buffer specific for the FK506 assay. Submicron microparticles coated with a capture molecule specific for FK506 being measured are used as the solid phase. […] The effective surface area of these polystyrene latex microparticles, which number in the millions, is several-fold greater than that of a 1/4 inch diameter polystyrene bead commonly used in other commercial immunoassays. Because of this large surface area and the very small diffusion distance between analyte and the capture molecules on the surface of the microparticles, the capture phase of the MEIA typically reaches equilibrium within several minutes, allowing excellent throughput.
Unlike homogeneous fluorescent polarization immunoassays, the heterogeneous MEIA requires a separation step. After incubation of the microparticles with specimen, the microparticles are separated from the reaction mixture by transferring it to an inert glass fiber matrix in the MEIA reaction cell. This glass fiber surface provides a precisely located mechanical support for the microparticles during the subsequent optical read phase of the assay. The microparticles and bound analyte adhere strongly to the glass fibers, while the remaining specimen components are washed through the pores of the matrix to an underlying absorbent blotter. Detection of the immune complex on the glass fiber matrix is accomplished using an alkaline phosphatase-labeled conjugate. Conjugate is either incubated with the specimen and microparticles in a typical one step IMx® MEIA or applied to the matrix after the initial wash step. It is contemplated that an MEIA for FK506 run on the IMx® analyzer can be configured either in a "sandwich" or competitive assay format. […]
In either configuration, the specifically bound alkaline phosphatase on the microparticles is detected by addition of a fluorogenic substrate, typically 4-methylumbelliferyl phosphate (4-MUP), to the matrix. […] The liberated 4-MU is detected by the IMx® MEIA optics assembly, a front surface fluorometer designed to detect fluorescence of low concentrations of 4-MU without interference by fluorescence of 4-MUP at 367 nanometers (nm). A system of lenses and optical filters focuses filtered light (365 nm wavelength) from a mercury arc lamp onto the surface of the matrix and focuses emitted fluorescence from 4-MU (448 nm wavelength) onto a photomultiplier tube. About 5% of the excitation light is detected by a photodiode, allowing normalization of the fluorescence data and generation of a control signal used by the lamp power supply to maintain the intensity of the excitation light within 5% over the useful life of the lamp. The instrument then uses linear regression analysis to convert the data from 8 successive determinations of 4-MU fluorescence to a rate, which rate is proportional to the concentration of alkaline phosphatase conjugate specifically bound to the microparticles, from which the concentration of FK506 in the sample can be determined. […]

[9] = assay type: physicochemical; remark: listed apart in the source
Description: The stability of the composition can be determined by measuring the decrease in the measured amount of FK506 in the aqueous composition with time. […] In a composition of the invention useful as a standard for a diagnostic assay, generally the amount of FK506 initially present in the aqueous composition maintained at a temperature of 37 degrees Celsius will decrease over a period of 7 days by less than 20 percent by weight, and typically by less than 5 percent by weight

[10] = aqueous blood cell composition, 168 h

SMILES: C=CC[C@@H]1/C=C(\C)C[C@H](C)C[C@H](OC)[C@H]2O[C@@](O)(C(=O)C(=O)N3CCCC[C@H]3C(=O)O[C@H](/C(C)=C/[C@@H]3CC[C@@H](O)[C@H](OC)C3)[C@H](C)[C@@H](O)CC1=O)[C@H](C)C[C@@H]2OC [FK506]
- stability in blood vs synthetic matrix [1]: much more stable in blood than in the synthetic matrix
- stability in plasma [2]: very unstable in plasma and serum
- stability in serum [2]: very unstable in plasma and serum
- stability in lysed blood [3]: more stable at 45 degrees Celsius than FK506 standards in serum, plasma or synthetic blood at 37 degrees Celsius
- stability in packed red cell matrices [4]: more stable in any of them relative to serum, plasma or synthetic blood matrices
- most stable matrix ([4]; saline vs plasma or serum dilution, 45 degrees Celsius): the most stable matrix was blood diluted with saline
- stability in sheep blood [5]: excellent stability
- stability in horse blood [6]: excellent stability
- stability in saline-diluted lysed blood [7]: good stability
- Fluorescent Rate ([8]; 10 ng/ml FK506 in lysed human whole blood): 288
- Fluorescent Rate ([8]; 20 ng/ml FK506 in lysed human whole blood): 197
- Fluorescent Rate ([8]; 30 ng/ml FK506 in lysed human whole blood): 150
- Fluorescent Rate ([8]; 50 ng/ml FK506 in lysed human whole blood): 111
- Fluorescent Rate ([8]; 80 ng/ml FK506 in lysed human whole blood): 79
- stability at acidic pH [9]: enhanced somewhat at acidic pH
- stability in aqueous matrices [9]: unstable
- decrease of the amount of FK506 initially present, generally [9, 10]: less than 20 percent by weight
- decrease of the amount of FK506 initially present, typically [9, 10]: less than 5 percent by weight
